# Measurements reported in article PMC5784132, “Investigation of 20S-hydroxyvitamin D3 analogs and their 1α-OH derivatives as potent vitamin D receptor agonists with anti-inflammatory activities” (Scientific Reports, 2018).
# Tests used:
# IFNγ production = test: IFNγ inhibition assay in anti-CD3 activated splenocytes; conditions: for activity at 0.1 µM: Mus musculus, Splenocyte, 72 h, read-out: IFNγ (ratio ± SD)
# mouse CYP27B1 = biological target: T1, mouse CYP27B1 (Mus musculus, UniProt O35084); test: Metabolism (1α-hydroxylation) of analogs by mouse CYP27B1; type: in vitro ADME
# T1 construct: made in house; host or cells: E. coli
# T1 sequence (O35084 1-507): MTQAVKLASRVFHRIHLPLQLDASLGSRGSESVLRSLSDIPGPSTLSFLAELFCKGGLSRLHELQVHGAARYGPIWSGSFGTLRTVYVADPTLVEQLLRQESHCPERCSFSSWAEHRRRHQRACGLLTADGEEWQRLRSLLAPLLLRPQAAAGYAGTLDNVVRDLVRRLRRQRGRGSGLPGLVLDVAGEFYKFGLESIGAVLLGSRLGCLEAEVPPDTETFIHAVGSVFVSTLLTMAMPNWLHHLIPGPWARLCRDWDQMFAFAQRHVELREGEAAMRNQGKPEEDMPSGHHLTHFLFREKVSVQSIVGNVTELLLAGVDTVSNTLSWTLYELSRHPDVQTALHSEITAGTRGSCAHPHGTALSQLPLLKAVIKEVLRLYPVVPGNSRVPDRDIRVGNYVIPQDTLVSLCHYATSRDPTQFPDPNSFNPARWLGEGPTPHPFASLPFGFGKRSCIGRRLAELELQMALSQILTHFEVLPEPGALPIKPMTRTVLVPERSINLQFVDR
# Protocol: In order to make the 1α-OH derivatives of the 20S(OH)D3 analogs enzymatically, and to assess their likely capacity to be 1α-hydroxylated in vivo, the ability of mouse CYP27B1 to hydroxylate these metabolites was examined. 25(OH)D3, the major natural substrate for CYP27B1[2],[30], was included for comparison. The 20S(OH)D3 analogs were incorporated into phospholipid vesicles and incubated with CYP27B1, then the extent of their metabolism was determined by HPLC (Table 2). All analogs tested except 33 were metabolized by CYP27B1. In each case only a single metabolite was produced, assumed to be the 1α-OH derivative based on the known high specificity of the enzyme for the 1α-position[24],[30],[31]. […] Metabolism of 4 was almost twice that of 20S(OH)D3 and metabolism of 23 almost three fold. Thus, the modifications to C24 and/or C25 seen in 13, 4 and 23 enhanced their ability to be metabolized by CYP27B1. […] In contrast, the introduction of an amide linkage into the side chain, as in 33, prevented its hydroxylation by CYP27B1.
# Rat CYP24A1, mouse CYP27B1 and adrenodoxin and human adrenodoxin reductase were expressed in E. coli and purified as described before[28],[30],[35]. To test metabolism of each analog, they were incorporated into phospholipid vesicles made from dioleoyl phosphatidylcholine and cardiolipin by sonication, as before[24],[28]. The substrates in vesicles (510 µM phospholipid) were incubated at 37 °C with either CYP24A1 (0.14 µM) or CYP27B1 (0.8 µM) in a reconstituted system containing adrenodoxin (15 µM) and adrenodoxin reductase (0.4 µM). Samples from incubations with CYP24A1 were extracted with dichloromethane and analysed by HPLC using a 25 cm Grace Alltima C18 column, as before[27],[28]. Products (except 33) were separated using an acetonitrile on water gradient (45% to 100% for 20 min then 100% acetonitrile for 40 min at a flow rate of 0.5 mL/min). For the more polar 33, the acetonitrile gradient was 30% to 100% acetonitrile for 30 min then 100% acetonitrile for 20 min, at 0.5 mL/min. Products from incubations with CYP27B1 were similarly extracted with dichloromethane and analyzed by reverse phase HPLC using a 15 cm Grace Smart C18 column and an acetonitrile in water gradient (10 min 45% to 100% acetonitrile then 20 min at 100% acetonitrile, at 0.5 mL/min).
"Product (% total secosteroids) (mouse CYP27B1; 0.018 mol/mol phospholipid, 0.8 µM mouse CYP27B1, 20 min, 37 °C)","conversion to product by CYP27B1, fold higher than 20S(OH)D3 (mouse CYP27B1; 20 min incubation)",SMILES,decrease of IFNγ production level (IFNγ production; 100 nM),activity at 0.1 µM (IFNγ production)
21.1 % total secosteroids,–,"C=C1CC[C@H](O)C/C1=C/C=C1\CCC[C@@]2(C)[C@H]1CC[C@@H]2[C@@](C)(O)CCCC(C)C [20S(OH)D3, 20S-hydroxyvitamin D3]",48%,51.7 ± 4.6%
–,4.3 fold,C=C1CC[C@H](O)C/C1=C/C=C1\CCC[C@@]2(C)[C@H]1CC[C@@H]2[C@@](C)(O)CCOC(C)C [compound 13],–,82.4 ± 3.1%
